Values quoted from earlier work in patent US20090318526A1, “Use of cannabinoid receptor agonists as hypothermia inducing drugs for the treatment of ischemia” (priority 2006, published 2009).

Test system: Sprague-Dawley rats
Settings: Leker et al. [37]

CCCCCCC(C)(C)c1cc(O)c2c(c1)OC(C)(C)[C@@H]1CC=C(CO)C[C@@H]21 [HU-210, (−)-11-OH-delta-8-tetrahydrocannabinoldimethylheptyl]
induction of hypothermia (Sprague-Dawley rats): did provide hypothermia | protection against ischemic damages (Sprague-Dawley rats): protection against ischemic damages | side effects due to the treatment (rats): hemodynamic and behavioural side effects
